Source: ChEMBL document CHEMBL1139337, “Syntheses and biological activities of fluorescent-labeled analogs of acylpolyamine toxin NPTX-594 isolated from the venom of Madagascar Joro spider” (2009)

System: Gryllus bimaculatus
Assay: Induction of paralysis in Gryllus bimaculatus assessed as drug level causing paralysis per gram of cricket after 5 mins
Assay type: functional

Row | SMILES | ED50 [nmol]
1 | NCCCCNCC(=O)NCCCNCCCNCCCCNC(=O)[C@H](CC(N)=O)NC(=O)c1cc2ccc(O)cc2oc1=O | 5.69
2 | NCCCC[C@H](N)C(=O)NCCCNCCCNCCCCNC(=O)[C@H](CC(N)=O)NC(=O)Cc1cc(=O)oc2cc(O)ccc12 | 1.05
3 | NCCCCNCC(=O)NCCCNCCCNCCCCNC(=O)[C@H](CC(N)=O)NC(=O)Cc1cc(=O)oc2cc(O)ccc12 | 0.136
4 | NCCCC[C@H](N)C(=O)NCCCNCCCNCCCCNC(=O)[C@H](CC(N)=O)NC(=O)Cc1ccc(O)cc1O | 0.175
5 | NCCCC[C@H](N)C(=O)NCCCNCCCNCCCCNC(=O)[C@H](CC(N)=O)NC(=O)c1cc2ccc(O)cc2oc1=O | 2.59
